Where a name gives a salt, the structure may show the parent alone. Read-outs that look alike come from different tables or passages of the source.
Columns and labels:
μ opioid receptor = target: T1, μ opioid receptor (Homo sapiens, UniProt P35372); test: Competition binding assay on membranes of CHO cells expressing μ opioid receptor, [3H]-labeled ligand; conditions: for inhibition at 10 µM: Table 1-1, 10 μM concentration of compound, mean ± SD of three measurements, read-out: μOR Binding rate (%); for Ki: read-out: μOR Ki
T1 construct: expressed in transfected cells; host or cells: CHO cells (membranes)
Description: (§1) CHO cells expressing p opioid receptor, δ opioid receptor and κ opioid receptor were cultured in 10 cm^2 culture dishes (F-12 medium+10% neonatal bovine serum) for several days, and the culture fluid was aspirated after the cells had grown to the bottom of the dishes; 3 ml of PBS/EDTA solution (0.1M NaCl, 0.01M NaH2PO4, 0.04% EDTA) was added to digest the cells for 3-5 min. Add ice-cold homogenate (50 mM HEPES PH 7.4, 3 mM MgCl, 1 mM EGTA) to the centrifuge tube, transfer the solution and sediment to a homogenizer and homogenize; then transfer the homogenate to a centrifuge tube and centrifuge at 18000 rpm. Centrifuge for 15 min, two times; the obtained precipitate was homogenized with appropriate amount of 50 mM Tris-HCl, pH 7.4 buffer and divided into centrifuge tubes and stored at −70° C. in the refrigerator until use.
(§2) The total binding tube was spiked with 20-30 μg of the expressed membrane receptor protein and […] ligand (1-2 nM), the corresponding non-specific binding tube was spiked with 1 μM of the corresponding ligand, and the sample tubes were spiked with various screened opioid ligands in a final volume of […], incubated at 30° C. for 30 min, and the reaction was terminated in ice water. […] The samples were filtered under negative pressure through GF/C (whatman) glass fiber filter paper on a Millipore sample collector. The reaction was rinsed three times with 4 ml of 50 mMV Tris-HCl (pH 7.4), the filter paper was dried and placed in 0.5 ml Eppendorf tubes with 0.5 ml of lipophilic scintillation solution, the radioactivity was measured by PERKIN ELMER PRI-CARB 2910 liquid scintillation counter and the inhibition rate was calculated. Inhibition rate (or binding rate)=(total binding rate dpm−sample tube dpm)/(total binding tube dpm−non-specific binding tube dpm)×100%
(§3) IC50 was calculated using Prism 5.0 software. the Ki value was calculated as follows, Ki=IC50/(1+[IL]/Kd), [lL] is the concentration of the added labeled ligand and Kd is the equilibrium dissociation parameter of the labeled ligand.
(§4) CHO cells expressing p opioid receptor, δ opioid receptor and κ opioid receptor were cultured in a 10 cm^2 culture dish (F-12 medium+10% neonatal bovine serum) for several days, and the culture fluid was aspirated after the cells grew to the bottom of the dish. 3 mL PBS/EDTA solution (0.1 M NaCl, 0.01 M NaH2PO4, 0.04% EDTA) was added to digest the cells for 3˜5 min, blew with a pipette to completely dislodge the cells. The cells were collected in a 40 mL centrifuge tube, centrifuged at 5000 rpm for 5 min. The supernatant was removed and the ice-cold homogenate (50 mM HEPES pH 7.4, 3 mM MgCl2, 1 mM EGTA) was added to the centrifuge tube. The solution and the precipitate were transferred to a homogenizer. Then the homogenate was transferred to a centrifuge tube and centrifuged at 18000 rpm for 15 min. The precipitate was centrifuged twice at 18000 rpm for 15 min. The obtained precipitate was homogenized by adding appropriate amount of 50 mM Tris-HCl, pH 7.4 buffer and divided into centrifuge tubes and stored at −70° C. in the refrigerator until use.
(§5) The total binding tube was added with 20-30 μg of expressed membrane receptor protein and [3H]-labeled ligand (1-2 nM). The corresponding non-specific binding tube was added with 1 μM of the corresponding ligand, and the sample tubes were added with various screened opioid ligands in a final volume of 100 μL. All of them were incubated for 30 min at 30° C., and the reaction was terminated in ice water. The samples were filtered under negative pressure through GF/C (Whatman) glass fiber filter paper on a Millipore sample collector. The reaction was rinsed three times with 4 mL of 50 mM Tris-HCl (pH 7.4), the filter paper was dried and placed in 0.5 mL Eppendorf tubes with 0.5 mL of lipophilic scintillation solution. […]

δ opioid receptor = target: T2, δ opioid receptor (Homo sapiens, UniProt P41143); test: Competition binding assay on membranes of CHO cells expressing δ opioid receptor, [3H]-labeled ligand; conditions: for inhibition at 10 µM / inhibition at 1 µM: 0.5 h; for inhibition at 10 µM: Table 1-1, 10 μM concentration of compound; for inhibition at 1 µM: 1 μM concentration of compound; for Ki: read-out: δOR Ki
T2 construct: expressed in transfected cells; host or cells: CHO cells (membranes)
Description: as §1, §2, §3, §4, §5

κ opioid receptor = target: T3, κ opioid receptor (Homo sapiens, UniProt P41145); test: Competition binding assay on membranes of CHO cells expressing κ opioid receptor, [3H]-labeled ligand; conditions: for inhibition at 10 µM / inhibition at 1 µM: 0.5 h; for inhibition at 10 µM: 10 μM concentration of compound; for inhibition at 1 µM: 1 μM concentration of compound; for Ki: read-out: κOR Ki
T3 construct: expressed in transfected cells; host or cells: CHO cells (membranes)
Description: as §1, §2, §3, §4, §5

[1] = Table 1-1, read-out: κOR Binding rate (%)
[2] = Table 4-1, read-out: δOR Binding rate (%)
[3] = Table 4-1, read-out: κOR Binding rate (%)

Structure (SMILES): COc1cccc(C2(O)CCC(N(Cc3ccccc3)S(=O)(=O)c3ccccc3)CC2CN(C)C)c1 (stereo not drawn)
- inhibition at 10 µM (μ opioid receptor): 70.5 ± 2.3%
- inhibition at 10 µM (δ opioid receptor; read-out: δOR Binding rate (%)): 9.53%
- inhibition at 10 µM (κ opioid receptor; [1]): 84.7 ± 2.1%

Structure (SMILES): COc1cccc(C2(O)CCN(C(=O)Cc3ccccc3Cl)CC2CN(C)C)c1 (stereo not drawn) [FWBE20, 2-(2-Chlorophenyl)-1-(3-((dimethylamino)methyl)-4-hydroxy-4-(3-methoxyphenyl)piperidin-1-yl)ethyl-1-one hydrochloride]
- inhibition at 1 µM (μ opioid receptor; 0.5 h, Table 5-1, 1 μM concentration of compound, read-out: μOR Combination rate (%)): 28.3 ± 7.2%
- inhibition at 1 µM (δ opioid receptor; Table 5-1, read-out: δOR Combination rate (%)): 0%
- inhibition at 1 µM (κ opioid receptor; Table 5-1, read-out: κOR Combination rate (%)): 34.8 ± 0.7%

Structure (SMILES): COc1cccc(C2(OC(=O)c3ccccc3)CCC(N(C)S(=O)(=O)Cc3ccccc3)CC2CN(C)C)c1 (stereo not drawn)
- inhibition at 10 µM (μ opioid receptor): 81.2 ± 4.2%
- inhibition at 10 µM (δ opioid receptor; read-out: δOR Binding rate (%)): 30.1 ± 14.9%
- inhibition at 10 µM (κ opioid receptor; [1]): 35.7 ± 3%

Structure (SMILES): COc1cccc(C2(O)CCC(NS(=O)(=O)c3cccc(Cl)c3)CC2CN(C)C)c1 (stereo not drawn)
- inhibition at 10 µM (μ opioid receptor): 79.7 ± 4.6%
- inhibition at 10 µM (δ opioid receptor; read-out: δOR Binding rate (%)): 14.5 ± 5.8%
- inhibition at 10 µM (κ opioid receptor; [1]): 35.9 ± 5.7%

Structure (SMILES): COc1cccc(C2(OC(=O)c3ccccc3)CCC(N(C)S(=O)(=O)Cc3cccc(Cl)c3)CC2CN(C)C)c1 (stereo not drawn)
- inhibition at 10 µM (μ opioid receptor): 89.8 ± 4.6%
- inhibition at 10 µM (δ opioid receptor; read-out: δOR Binding rate (%)): 4.8%
- inhibition at 10 µM (κ opioid receptor; [1]): 25.5 ± 6.1%

Structure (SMILES): COc1cccc(C2(O)CCC(S(=O)(=O)Cc3ccccc3)CC2CN(C)C)c1 (stereo not drawn) [4-(Benzylsulfonyl)-2-((dimethylamino)methyl)-1-(3-methoxyphenyl) cyclohexane-1-ol hydrochloride]
- inhibition at 10 µM (μ opioid receptor): 98.6 ± 1.2%
- inhibition at 10 µM (δ opioid receptor; read-out: δOR Binding rate (%)): 44 ± 7.85%
- inhibition at 10 µM (κ opioid receptor; [1]): 47.7 ± 3.1%

Structure (SMILES): CN(C)C[C@@H]1CN(S(=O)(=O)Cc2ccccc2)CC[C@@]1(O)c1cccc(O)c1 [(3R,4S)-1-(Benzylsulfonyl)-3-((dimethylamino)methyl)-4-(3-hydroxyphenyl)piperidin-4-ol hydrochloride]
- Ki (μ opioid receptor; Table 4-1): 0.17 ± 0.01 nM
- Ki (δ opioid receptor; Table 4-1): 1100 ± 42 nM
- Ki (κ opioid receptor; Table 4-1): 33.7 ± 3.26 nM

Structure (SMILES): COc1cccc(C2(O)CCC(N(Cc3ccccc3)S(=O)(=O)c3cccc(Cl)c3)CC2CN(C)C)c1 (stereo not drawn)
- inhibition at 10 µM (μ opioid receptor): 85.8 ± 3.2%
- inhibition at 10 µM (δ opioid receptor; read-out: δOR Binding rate (%)): 5.1%
- Ki (κ opioid receptor; Table 1-1): 9.81 ± 0.32 nM

Structure (SMILES): CN(C)C[C@H]1CN(S(=O)(=O)Cc2ccccc2)CC[C@]1(O)c1cccc(O)c1 [(3S,4R)-1-(Benzylsulfonyl)-3-((dimethylamino)methyl)-4-(3-hydroxyphenyl)piperidin-4-ol hydrochloride]
- Ki (μ opioid receptor; Table 4-1): 38.3 ± 1.18 nM
- Ki (δ opioid receptor; Table 4-1): 1089 ± 9 nM
- Ki (κ opioid receptor; Table 4-1): 231 ± 13.1 nM

Structure (SMILES): COc1cccc(C2(O)CCC(NS(=O)(=O)c3ccccc3)CC2CN(C)C)c1 (stereo not drawn) [N-(3-((Dimethylamino)methyl)-4-hydroxy-4-(3-methoxyphenyl)cyclohexyl) benzenesulfonamide hydrochloride]
- inhibition at 10 µM (μ opioid receptor): 75.8 ± 4.1%
- inhibition at 10 µM (δ opioid receptor; read-out: δOR Binding rate (%)): 38 ± 2.43%
- inhibition at 10 µM (κ opioid receptor; [1]): 25.8 ± 7.9%

Structure (SMILES): COc1cccc([C@@]2(O)CCN(C(=O)Cc3cc(F)c(F)cc3F)C[C@@H]2CN(C)C)c1
- Ki (μ opioid receptor; Table 4-1): 2310 ± 234 nM
- inhibition at 1 µM (δ opioid receptor; [2]): 0%
- inhibition at 1 µM (κ opioid receptor; [3]): 23.4 ± 3.9%

Structure (SMILES): COc1cccc([C@]2(O)CCN(C(=O)Cc3cc(F)c(F)cc3F)C[C@H]2CN(C)C)c1
- Ki (μ opioid receptor; Table 4-1): 165 ± 22.3 nM
- inhibition at 1 µM (δ opioid receptor; [2]): 26.6 ± 3.9%
- inhibition at 1 µM (κ opioid receptor; [3]): 33 ± 4.1%

Structure (SMILES): COc1cccc(C2(OC(F)F)CCN(S(=O)(=O)Cc3ccccc3)CC2CN(C)C)c1.Cl (stereo not drawn) [hydrochloride]
- inhibition at 0.1 µM (μ opioid receptor; Table 2-1 footnote a, at 0.1 μM, read-out: μOR Inhibition rate or binding rate): 22.6 ± 9.8%
- inhibition at 0.1 µM (δ opioid receptor; Table 2-1 footnote a, at 0.1 μM, read-out: δOR Inhibition rate or binding rate): 0%
- inhibition at 0.1 µM (κ opioid receptor; Table 2-1 footnote a, at 0.1 μM, read-out: κOR Inhibition rate or binding rate): 15.5 ± 4.1%

Structure (SMILES): COc1cccc(C2(OC(=O)c3ccccc3)CCC(NS(=O)(=O)c3ccccc3)CC2CN(C)C)c1 (stereo not drawn)
- inhibition at 10 µM (μ opioid receptor): 80.9 ± 4.4%
- inhibition at 10 µM (δ opioid receptor; read-out: δOR Binding rate (%)): 17.4 ± 2.5%
- inhibition at 10 µM (κ opioid receptor; [1]): 51.5 ± 6.6%

Structure (SMILES): CN(C)CC1CN(S(=O)(=O)Cc2ccccc2)CCC1(O)c1cccc(OC(F)(F)F)c1.Cl (stereo not drawn) [hydrochloride]
- Ki (μ opioid receptor; Table 2-1): 64.5 ± 1.76 nM
- inhibition at 1 µM (δ opioid receptor; Table 2-1, read-out: δOR Binding rate (%)): 40.8 ± 2.23%
- inhibition at 1 µM (κ opioid receptor; Table 2-1, read-out: κOR Binding rate (%)): 21.4 ± 0.36%

Structure (SMILES): COc1cccc(C2(OC(=O)c3ccccc3)CCC(NS(=O)(=O)c3cccc(Cl)c3)CC2CN(C)C)c1 (stereo not drawn)
- inhibition at 10 µM (μ opioid receptor): 70.4 ± 3%
- inhibition at 10 µM (δ opioid receptor; read-out: δOR Binding rate (%)): 18.8 ± 8.6%
- inhibition at 10 µM (κ opioid receptor; [1]): 39 ± 5.5%

Structure (SMILES): CN(C)C[C@H]1CN(C(=O)Cc2cc(F)c(F)cc2F)CC[C@]1(O)c1cccc(O)c1
- Ki (μ opioid receptor; Table 4-1): 53.5 ± 0.09 nM
- Ki (δ opioid receptor; Table 4-1): 3560 ± 96.5 nM
- Ki (κ opioid receptor; Table 4-1): 42.3 ± 0.6 nM

Structure (SMILES): COc1cccc([C@]2(O)CCN(S(=O)(=O)Cc3ccccc3)C[C@H]2CN(C)C)c1 [(3R,4S)-1-(Benzylsulfonyl)-3-((dimethylamino)methyl)-4-(3-methoxyphenyl)piperidin-4-ol hydrochloride salt]
- inhibition at 0.1 µM (μ opioid receptor; Table 4-1 footnote a, 0.1 μM, read-out: μOR Inhibition rate): 27.5 ± 1.54%
- inhibition at 0.1 µM (δ opioid receptor; Table 4-1 footnote a, 0.1 μM, read-out: δOR Inhibition rate): 10.5 ± 3.7%
- inhibition at 0.1 µM (κ opioid receptor; Table 4-1 footnote a, 0.1 μM, read-out: κOR Inhibition rate): 15.2 ± 1.56%

— patent US12624004B2 (Fudan University, priority 2019, dated 2026)
